# Reference: patent US20220401360A1, “Milrinone Composition and Method for Administering Same” (Vanderbilt University, priority 2015, published 2022)
# Several values for one entry are separate records, joined by “and”; a condition that tells them apart may be missing. Identical values can stand only once. Like-named read-outs stand apart in the source and are kept apart here.
# Tests used:
# [1] = Plasma milrinone levels (HPLC) during inhaled milrinone after CF-LVAD implantation; format: in vivo, human; settings: for concentration at 0 h / concentration at 1 h / concentration at 4 h / concentration at 8 h / concentration at 12 h / concentration at 24 h: human, plasma, inhaled, 6 mg/h
# Experimental: Blood samples to determine plasma milrinone levels were obtained at baseline, 1, 4, 8, 12 and 24 hours after initiation of inhaled milrinone. Plasma milrinone levels were determined by ultra-violet high liquid chromatography (HPLC) method [14].
# Delivery of inhaled milrinone was initiated five minutes before the first weaning attempt from cardiopulmonary bypass after LVAD implantation in the operating suite. […] Prior to initiation of inhaled milrinone, blood samples were obtained and analyzed for baseline plasma levels of milrinone. Patient arrival in the ICU immediately after LVAD implantation was defined as ‘time zero.’ Further blood samples to determine plasma milrinone levels were obtained at 1, 4, 8, 12 and 24 hours after arrival to the ICU. […] Patients received inhaled milrinone for a maximum of 24 hours or until the patient was extubated (if less than 24 hours).
# [2] = system: post-operative CF-LVAD patients; assay: Tolerability / safety primary end point of inhaled milrinone (arrhythmias, hypotension, hypersensitivity, death); format: in vivo; settings: for Death while receiving inhaled milrinone therapy: 10 patients
# Experimental: (§1) Methods. The present inventors evaluated fixed dose nebulized iMil delivered into a ventilator circuit for 24 hours in 10 post-operative CF-LVAD (HeartMate-II=10) patients. Tolerability (arrhythmias, hypotension and hypersensitivity reaction), efficacy (hemodynamic), pharmacokinetics (plasma milrinone levels) and cost data were collected.
# The primary end point was safety, which included documentation of 1) new atrial arrhythmias, lasting greater than 30 seconds or resulting in hemodynamic instability (mean arterial pressure (MAP)<60 mmHg or requiring medical intervention) 2) sustained ventricular tachycardia (VT) lasting greater than 30 seconds, not related to an LVAD suction event or any ventricular arrhythmia resulting in hemodynamic instability (sustained hypotension with a MAP <60 mmHg not related to secondary causes such as acute blood loss or tamponade) and 3) hypersensitivity reaction to milrinone leading to systemic hypotension (MAP<60 mmHg or requiring medical intervention), bronchospasm or rash 4) Death by 30 days.
# [3] = system: post-operative CF-LVAD patients; assay: Hospital and ICU length of stay, days on inotropes; format: in vivo, human; settings: inhaled milrinone group
# Experimental: (§2) Secondary end points were designed to assess the efficacy, cost effectiveness and pharmacokinetic profile of inhaled milrinone therapy. Efficacy endpoints included hospital and intensive care unit (ICU) length of stay, days on inotropes, mortality at 30 days and changes in right ventricular stroke work index (RSVWi) and right heart catheterization and echocardiographic parameters from baseline values. Right heart catheterization was performed during the hospitalization before LVAD implantation and included the following parameters: right atrial pressure (RAP), mean pulmonary artery pressure (mPAP), pulmonary artery systolic pressure (PASP), cardiac index (CI) and cardiac output (CO). Echocardiographic data was collected retrospectively from echocardiograms closest to LVAD implantation date (studies performed >1 month before surgery were not included) and prospectively obtained within 72 hours after LVAD implantation. Echocardiographic parameters included: left ventricular end diastolic volume (LVEDV), left ventricular end diastolic dimension (LVEDd), cardiac output (CO), PASP, qualitative RV function, and tricuspid annular plane systolic excursion (TAPSE).
# [4] = literature refs [17, 18]; cited from earlier work
# [5] = system: post-operative CF-LVAD patients; assay: Echocardiographic parameters before vs after LVAD implantation with inhaled milrinone; format: in vivo, human
# Experimental: Secondary end points were designed to assess the efficacy, cost effectiveness and pharmacokinetic profile of inhaled milrinone therapy. […] Right heart catheterization was performed during the hospitalization before LVAD implantation and included the following parameters: right atrial pressure (RAP), mean pulmonary artery pressure (mPAP), pulmonary artery systolic pressure (PASP), cardiac index (CI) and cardiac output (CO). […] Echocardiographic parameters included: left ventricular end diastolic volume (LVEDV), left ventricular end diastolic dimension (LVEDd), cardiac output (CO), PASP, qualitative RV function, and tricuspid annular plane systolic excursion (TAPSE). Delivery of inhaled milrinone was initiated five minutes before the first weaning attempt from cardiopulmonary bypass after LVAD implantation in the operating suite. Intraoperative transesophageal echocardiography was performed and analyzed by a single cardiac anesthesiologist, certified in the interpretation of intraoperative echocardiography. Prior to initiation of inhaled milrinone, blood samples were obtained and analyzed for baseline plasma levels of milrinone. […] All patients underwent a transthoracic echocardiogram 48-72 hours after cessation of inhaled milrinone.
# [6] = Characterization of inhaled milrinone: nebulization degradation profile (mass spectrometry); format: physicochemical; settings: vibrating mesh nebulizer connected to a mechanical ventilator circuit
# Experimental: Inhaled milrinone validation studies were performed in order to characterize inhaled milrinone aerosol particle size, evaluate nebulization degradation profile, and quantify drug delivery using a vibrating mesh nebulizer connected to a mechanical ventilator circuit. […] A pharmaceutical grade impactor was used to determine median aerodynamic particle size and HPLC was used to determine the amount of milrinone collected at the distal end of the experimental endotracheal tube [15]. Based on this analysis, we prepared a solution of milrinone diluted in 0.9% saline to a final concentration of 0.5 mg/ml to be delivered via continuous infusion by an Alaris® infusion pump set at a fixed rate of 12 ml/hr connected to an Areogen Solo (Aeroneb,® Galway, Ireland) vibrating mesh nebulizer and Aeroneb Pro-X nebulizer control unit (Aerogen, Galway, Ireland). The nebulizer was connected to a mechanical ventilator (Servo-I, Maquet Inc. Wayne N.J.) with a dual heated wire ventilator circuit (Teleflex Hudson RCI, Research Triangle Park, N.C.) proximal to the heated humidifier (Teleflex Hudson Neptune, Research Triangle Park, N.C.). Despite continuous nebulization, delivery of the aerosolized drug product occurred in an ‘intermittent-continuous’ fashion based on the mechanical ventilator respiratory rate. All inhaled milrinone product was administered by a licensed respiratory therapist.
# [7] = system: post-operative CF-LVAD patients; assay: Perioperative hemodynamics (right heart catheterization / indwelling pulmonary artery catheter) with inhaled milrinone; format: in vivo, human
# Experimental: as §1, §2
# Delivery of inhaled milrinone was initiated five minutes before the first weaning attempt from cardiopulmonary bypass after LVAD implantation in the operating suite. Intraoperative transesophageal echocardiography was performed and analyzed by a single cardiac anesthesiologist, certified in the interpretation of intraoperative echocardiography. Prior to initiation of inhaled milrinone, blood samples were obtained and analyzed for baseline plasma levels of milrinone. Patient arrival in the ICU immediately after LVAD implantation was defined as ‘time zero.’ Further blood samples to determine plasma milrinone levels were obtained at 1, 4, 8, 12 and 24 hours after arrival to the ICU. Hemodynamic values from indwelling pulmonary artery catheter and routine vital signs were also obtained at 1, 4, 8, 12 and 24 hour intervals. Patients received inhaled milrinone for a maximum of 24 hours or until the patient was extubated (if less than 24 hours). Final hemodynamic values were obtained 1 hour after extubation or cessation of inhaled milrinone therapy. All patients underwent a transthoracic echocardiogram 48-72 hours after cessation of inhaled milrinone.
# [8] = while on inhaled milrinone therapy, p<0.009
smiles,measurement,setting,value
"Cc1[nH]c(=O)c(C#N)cc1-c1ccncc1 [inhaled milrinone, milrinone]",Mean plasma milrinone levels at baseline,"[1]; baseline, fixed dose nebulized iMil, 10 post-operative CF-LVAD patients",74.2 ± 35.4 ng/mL
same,concentration at 0 h,"[1]; Table 3 mean of patients, 0 hrs, read-out: Plasma milrinone level, Mean, 0 hrs",114 ng/mL
same,concentration at 1 h,"[1]; Table 3 mean of patients, 1 hrs, read-out: Plasma milrinone level, Mean, 1 hrs",133 ng/mL
same,concentration at 4 h,"[1]; Table 3 mean of patients, 4 hrs, read-out: Plasma milrinone level, Mean, 4 hrs",149 ng/mL
same,concentration at 8 h,"[1]; Table 3 mean of patients, 8 hrs, read-out: Plasma milrinone level, Mean, 8 hrs",213 ng/mL
same,concentration at 12 h,"[1]; Table 3 mean of patients, 12 hrs, read-out: Plasma milrinone level, Mean, 12 hrs",176 ng/mL
same,concentration at 24 h,"[1]; Table 3 mean of patients, 24 hrs, read-out: Plasma milrinone level, Mean, 24 hrs",173 ng/mL
same,concentration at 0 h,"[1]; Table 3 median of patients, 0 hrs, read-out: Plasma milrinone level, Median, 0 hrs",75 ng/mL
same,concentration at 1 h,"[1]; Table 3 median of patients, 1 hrs, read-out: Plasma milrinone level, Median, 1 hrs",114 ng/mL
same,concentration at 4 h,"[1]; Table 3 median of patients, 4 hrs, read-out: Plasma milrinone level, Median, 4 hrs",117 ng/mL
same,concentration at 8 h,"[1]; Table 3 median of patients, 8 hrs, read-out: Plasma milrinone level, Median, 8 hrs",227 ng/mL
same,concentration at 12 h,"[1]; Table 3 median of patients, 12 hrs, read-out: Plasma milrinone level, Median, 12 hrs",160 ng/mL
same,concentration at 24 h,"[1]; Table 3 median of patients, 24 hrs, read-out: Plasma milrinone level, Median, 24 hrs",137 ng/mL
same,concentration at 1 h,"[1]; 1 hour, read-out: Mean plasma milrinone levels at 1 hour",111 ± 70.9 ng/mL
same,concentration at 4 h,"[1]; 4 hour, read-out: Mean plasma milrinone levels at 4 hour",136 ± 41.5 ng/mL
same,concentration at 8 h,"[1]; 8 hour, read-out: Mean plasma milrinone levels at 8 hour",205 ± 86.7 ng/mL
same,concentration at 12 h,"[1]; 12 hour, read-out: Mean plasma milrinone levels at 12 hour",177 ± 61.3 ng/mL
same,concentration at 24 h,"[1]; 24 hour, read-out: Mean plasma milrinone levels at 24 hour",188 ± 106 ng/mL
same,"Plasma milrinone level, 0 hrs","[1]; individual patients 1-10, 0 hrs, inhaled milrinone 0.5 mg/ml at 12 ml/hr, prior IV milrinone stopped 6 h (Patient 1) or >12 h before surgery",69.93 ng/mL and 65.54 ng/mL and 87.08 ng/mL and 138.22 ng/mL and 392.92 ng/mL and 20.85 ng/mL and 80.03 ng/mL and 57.67 ng/mL
same,"Plasma milrinone level, 1 hrs","[1]; individual patients 1-10, 1 hrs, continuous inhaled milrinone 0.5 mg/ml at 12 ml/hr",239.86 ng/mL and 115.38 ng/mL and 106.94 ng/mL and 111.96 ng/mL and 12.54 ng/mL and 157.04 ng/mL and 326.72 ng/mL and 81.31 ng/mL and 18.53 ng/mL and 158.4 ng/mL
same,"Plasma milrinone level, 4 hrs","[1]; individual patients 1-10, 4 hrs, continuous inhaled milrinone",113.74 ng/mL and 112.71 ng/mL and 114.96 ng/mL and 92.16 ng/mL and 112.06 ng/mL and 188.04 ng/mL and 267.11 ng/mL and 154.31 ng/mL and 118.34 ng/mL and 216.26 ng/mL
same,"Plasma milrinone level, 8 hrs","[1]; individual patients 1-10, 8 hrs, continuous inhaled milrinone",268.28 ng/mL and 115.66 ng/mL and 134 ng/mL and 273.14 ng/mL and 91.67 ng/mL and 349.39 ng/mL and 284.52 ng/mL and 158.8 ng/mL and 197.89 ng/mL and 255.72 ng/mL
same,"Plasma milrinone level, 12 hrs","[1]; individual patients 1-10, 12 hrs, continuous inhaled milrinone",133.77 ng/mL and 152.27 ng/mL and 248.58 ng/mL and 254.31 ng/mL and 89.91 ng/mL and 167.3 ng/mL and 153.12 ng/mL and 205.26 ng/mL
same,"Plasma milrinone level, 24 hrs","[1]; individual patients 1-10, 24 hrs, continuous inhaled milrinone",117.04 ng/mL and 364.15 ng/mL and 101.94 ng/mL and 100.88 ng/mL and 156.98 ng/mL and 197.73 ng/mL
same,Plasma milrinone levels during inhaled milrinone therapy (within the accepted therapeutic milrinone range),"[1]; inhaled milrinone therapy, statement in words",100 to 300 ng/mL
same,Death while receiving inhaled milrinone therapy,[2],No deaths occurred
same,Death while receiving inhaled milrinone therapy,[2]; listed as iMil,not observed
same,"Ventricular tachycardia events, number (%)","[2]; human, in vivo",3 (30%)
same,"Non-sustained VT, number of patients/events","[2]; human, in vivo, 24 h",1
same,"Sustained VT, number of patients/events","[2]; human, in vivo, 24 h",2
same,Deaths in the study group 30 days after CF-LVAD implantation,"[2]; institutional 30 day death rate 12% (12/102), p=0.60",0/10
same,Rate of ventricular arrhythmias during inhaled milrinone therapy,"[2]; n=3 of 10, INTERMACS data base 36%, p=0.99",30%
same,Patients requiring veno-arterial ECMO support,"[2]; within hours of LVAD implantation, no absolute cause identified",1
same,Median ICU length of stay,"[3]; institutional 5 days, p=0.49",5 days
same,Median total days on inotrope support,"[3]; institutional 6 days, p=0.08",9 days
same,Median total hospital length of stay,"[3]; institutional 28 days, p=0.26",33 days
same,Accepted therapeutic range of plasma milrinone,[4],100 to 300 ng/mL
same,Qualitative RV function after LVAD implantation vs pre-LVAD implant,[5]; p=0.347,not significantly different
same,TAPSE after LVAD implantation vs pre-LVAD implant,[5]; p=0.846,not significantly different
same,LVED volume (echocardiography) after LVAD implantation vs pre-LVAD implant,[5]; [8],significant decreases
same,LVIDd (echocardiography) after LVAD implantation vs pre-LVAD implant,[5]; [8],significant decreases
same,PASP (echocardiography) after LVAD implantation vs pre-LVAD implant,[5]; [8],significant decreases
same,New drug formation or degradation products after nebulization (mass spectrometry),[6],did not identify new drug formation or degradation products
same,"Right Atrial Pressure, mean, Post milrinone","[7]; 1 hour after cessation of inhaled milrinone, Pre-VAD RHC 13.75",25.75 mmHg
same,"Mean Pulmonary Artery Pressure, mean, Post milrinone","[7]; 1 hour after cessation, Pre-VAD RHC 39.5",27 mmHg
same,"Pulmonary Artery Systolic Pressure, mean, Post milrinone","[7]; 1 hour after cessation, Pre-VAD RHC 56.33",38.75 mmHg
same,"Right Atrial Pressure, mean, ICU arrival","[7]; ICU arrival after LVAD implantation, inhaled milrinone started before weaning from bypass, Pre-VAD RHC 13.75",13.33 mmHg
same,"Mean Pulmonary Artery Pressure, mean, ICU arrival","[7]; ICU arrival, Pre-VAD RHC 39.5",28.5 mmHg
same,"Pulmonary Artery Systolic Pressure, mean, ICU arrival","[7]; ICU arrival, Pre-VAD RHC 56.33",36.00 mmHg
same,"Right Atrial Pressure, Mean on milrinone","[7]; during inhaled milrinone, Pre-VAD RHC 13.75",13.53 mmHg
same,"Mean Pulmonary Artery Pressure, Mean on milrinone","[7]; during inhaled milrinone, Pre-VAD RHC 39.5",25.88 mmHg
same,"Pulmonary Artery Systolic Pressure, Mean on milrinone","[7]; during inhaled milrinone, Pre-VAD RHC 56.33",36.25 mmHg
same,Invasive mean pulmonary artery pressure from baseline to during iMil therapy,[7]; p=0.017,improved
same,"RVSWi, mean, 1 hour after milrinone cessation","[7]; preoperative mean 571, p=0.179",383 mmHg-mL/m^2
same,"RVSWi, median, 1 hour after milrinone cessation","[7]; preoperative median 453, p=0.179",326 mmHg-mL/m^2
